Data published in article PMC8536124 (International Journal of Molecular Sciences, 2021).
Marks after values point to notes of the source that are not given here.

What was measured:
K-562 = experiment: NCI-60 screening (SRB); type: cell-based, human; settings: for GI50 / CC50: Homo sapiens, K562, five-dose; for CC50: read-out: LC50 (the source's name); for TGI: five-dose
NCI-H226 = experiment: NCI-60 screening (SRB); type: cell-based, human; settings: five-dose
NCI-H322M = experiment: NCI-60 screening (SRB); type: cell-based, human; settings: five-dose; for GI50 / CC50: Homo sapiens; for CC50: read-out: LC50 (the source's name)
NCI-H460 = experiment: NCI-60 screening (SRB); type: cell-based, human; settings: five-dose; for GI50 / CC50: Homo sapiens; for CC50: read-out: LC50 (the source's name)
LOX IMVI = experiment: NCI-60 screening (SRB); type: cell-based, human; settings: LOX IMVI, five-dose; for GI50 / CC50: Homo sapiens; for CC50: read-out: LC50 (the source's name)
M14 = experiment: NCI-60 screening (SRB); type: cell-based, human; settings: five-dose
UACC-257 = experiment: NCI-60 screening (SRB); type: cell-based, human; settings: five-dose; for GI50 / CC50: Homo sapiens; for CC50: read-out: LC50 (the source's name)
UACC-62 = experiment: NCI-60 screening (SRB); type: cell-based, human; settings: five-dose; for GI50 / CC50: Homo sapiens; for CC50: read-out: LC50 (the source's name)
OVCAR-8 = experiment: NCI-60 screening (SRB); type: cell-based, human; settings: five-dose; for GI50 / CC50: Homo sapiens; for CC50: read-out: LC50 (the source's name)
SK-OV-3 = experiment: NCI-60 screening (SRB); type: cell-based, human; settings: five-dose; for GI50 / CC50: Homo sapiens; for CC50: read-out: LC50 (the source's name)
CAKI-1 = experiment: NCI-60 screening (SRB); type: cell-based, human; settings: CAKI-1, five-dose; for GI50 / CC50: Homo sapiens; for CC50: read-out: LC50 (the source's name)
DU-145 = experiment: NCI-60 screening (SRB); type: cell-based, human; settings: five-dose; for GI50 / CC50: Homo sapiens; for CC50: read-out: LC50 (the source's name)
MCF7 = experiment: NCI-60 screening (SRB); type: cell-based, human; settings: five-dose; for GI50 / CC50: Homo sapiens; for CC50: read-out: LC50 (the source's name)
A375 cells = experiment: Cell morphology and confluence; type: cell-based, human; settings: all concentrations (0.1, 1, 5 μM), 24 h
Experimental: A morphological examination of the tested cells was conducted in order to provide additional data for the investigated compounds in terms of their biological activity.

BAK gene, A375 = experiment: Gene expression by qRT-PCR; type: cell-based, human; settings: 1 μM, mean 2^∆∆Ct, DMSO 5.200
Description: (§1) Apoptosis at the cellular level can be initiated through the mitochondrial intrinsic pathway, which involves the Bcl-2 family of genes that includes the anti-apoptotic Bcl-XL and Bcl-2, as well as the pro-apoptotic Bak and Bax members; the balance between the expressions of anti- and pro-apoptotic proteins ensures physiological cell death. In cancers, the alterations occurring in gene expressions due to down- or up-regulations may result in delayed apoptosis and malignant proliferation. Thus, active compounds that modify the abnormal expression of genes involved in the apoptotic process may successfully act as anticancer agents. We tested the effect of compounds 4 and 6 on the expression of anti-apoptotic (Bcl-XL and Bcl-2) and pro-apoptotic (Bak and Bax) genes (Table 4, Figure 8).
(§2) Total RNA was extracted using peqGold RNAPureTM Package (Peqlab Biotechnology GmbH, Erlangen, Germany) according to the manufacturer’s instructions, and a DS-11 spectrophotometer (DeNovix, Wilmington, DE, USA) was used to measure total concentration of RNA. Reverse transcription was performed using the Maxima® First Strand cDNA Synthesis Kit (Fermentas, St. Leon-Rot, Germany), and the mix was incubated in the Tadvanced biometra product line (Analytik Jena AG, Jena, Germany) with a thermal program of 25 °C for 10 min, 85 °C for 5 min. Quantitative real-time PCR was conducted in a Quant Studio 5 real-time PCR system, (Thermo Fisher Scientific, Inc., Waltham, MA, USA), with analysis being performed in 20 µL reactions containing Power SYBR-Green PCR Master Mix (Thermo Fisher Scientific, Inc.). Cycling conditions were: 95 °C for 10 s followed by 40 cycles of denaturing at 95 °C for 15 s, and annealing and extension at 60 °C for 1 min.

BAK gene, RPMI = experiment: Gene expression by qRT-PCR; type: cell-based, human; settings: 1 μM, mean 2^∆∆Ct, DMSO 4.163
Description: as §1, §2

BAK gene, SK-Mel-28 = experiment: Gene expression by qRT-PCR; type: cell-based, human; settings: 1 μM, mean 2^∆∆Ct, DMSO 1.383
Description: as §1, §2

BAX gene, A375 = experiment: Gene expression by qRT-PCR; type: cell-based, human; settings: 1 μM, mean 2^∆∆Ct, DMSO 4.063
Description: as §1, §2

BAX gene, RPMI = experiment: Gene expression by qRT-PCR; type: cell-based, human; settings: 1 μM, mean 2^∆∆Ct, DMSO 3.040
Description: as §1, §2

BAX gene, SK-Mel-28 = experiment: Gene expression by qRT-PCR; type: cell-based, human; settings: 1 μM, mean 2^∆∆Ct, DMSO 2.086
Description: as §1, §2

Bcl-2 gene, A375 = experiment: Gene expression by qRT-PCR; type: cell-based, human; settings: 1 μM, mean 2^∆∆Ct, DMSO 2.216
Description: as §1, §2

Bcl-2 gene, RPMI = experiment: Gene expression by qRT-PCR; type: cell-based, human; settings: 1 μM, mean 2^∆∆Ct, DMSO 4.063
Description: as §1, §2

Bcl-2 gene, SK-Mel-28 = experiment: Gene expression by qRT-PCR; type: cell-based, human; settings: 1 μM, mean 2^∆∆Ct, DMSO 2.573
Description: as §1, §2

Bcl-XL gene, A375 = experiment: Gene expression by qRT-PCR; type: cell-based, human; settings: 1 μM, mean 2^∆∆Ct, DMSO 4.550
Description: as §1, §2

Bcl-XL gene, SK-Mel-28 = experiment: Gene expression by qRT-PCR; type: cell-based, human; settings: 1 μM, mean 2^∆∆Ct, DMSO 4.730
Description: as §1, §2

chorioallantoic membrane = experiment: HET-CAM irritation assay
Description: In this assay, the irritation potential may range from 0 to 21, with 0 being non-irritant and 21 being the most irritant. […] The irritation score was established according to Luepke scale: 0–0.9 indicates non-irritant, 1–4.9 indicates weakly irritant, 5–8.9 indicates moderately irritant, while 9–21 means strongly irritant (Table 6) [88, 89].
The in vivo Hen’s Egg Chorioallantoic Membrane Test (HET-CAM) assay determines a potential irritant effect on the vascular plexus of the chorioallantoic membrane [94]. The HET-CAM method was carried out following ICCVAM recommendations published in November 2016 in Appendix G and adapted to our conditions [88, 95, 96]. Thus, a volume of 300 µL of control or test solution was applied and the modifications produced at the CAM level were monitored by means of stereomicroscopy (Discovery 8 Stereomicroscope, Zeiss), registering significant images (Axio CAM 105 color, Zeiss), before application after 5 min of contact with the samples. All images were processed using Zeiss ZEN software, Gimp 2.8, and ImageJ software.
Negative control was represented by distilled water and solvent control DMSO 0.5%, and positive control by sodium lauryl sulphate (SLS) 0.5% in distillate water. The test substances were tested in concentrations of 1 µM.
Finally, the following reactions were: hemorrhage—H (blood vessel bleeding), vascular lysis—L (disintegration of blood vessels), coagulation—C (intra- or extra-vascular protein denaturizing). A variety of analysis methods may be used to assess irritancy potential of test substances. One analysis method that has been used extensively is an irritation score (IS). The formula used to generate an IS value is:(1) IS=5×301−Sec H/300+7×300−Sec L/300+9×301−Sec C/300 where: H = hemorrhage; L = vessel lysis; C = coagulation; hemorrhage time (Sec H) = onset of hemorrhage reactions on CAM (in seconds); lysis time (Sec L) = onset of vessel lysis on CAM (in seconds); coagulation time (Sec C) = onset of coagulation formation on CAM (in seconds). Means values are obtained. […] The IS values range on a scale between 0 and 21.

SNB-75 = experiment: NCI-60 screening (SRB); type: cell-based, human; settings: five-dose
[1] = Homo sapiens, read-out: LC50 (the source's name)

CCN1CCN(C(=O)[C@]23CCC(C)(C)C[C@H]2C2=CC[C@@H]4[C@@]5(C)C/C(=C/c6cccnc6)C(=O)C(C)(C)[C@@H]5CC[C@@]4(C)[C@]2(C)CC3)CC1 [Compound 6]
GI50 (K-562): 0.443 µM
CC50 (K-562): > 100 µM
TGI (K-562): 3.34 µM
GI50 (NCI-H226; Homo sapiens): 1.76 µM
TGI (NCI-H226): 3.80 µM
GI50 (NCI-H322M): 2.87 µM
CC50 (NCI-H322M): 33.9 µM
TGI (NCI-H322M): 9.25 µM
GI50 (NCI-H460): 1.39 µM
CC50 (NCI-H460): 6.2 µM
TGI (NCI-H460): 2.93 µM
GI50 (LOX IMVI): 1.36 µM
CC50 (LOX IMVI): 5.45 µM
TGI (LOX IMVI): 2.73 µM
GI50 (M14; Homo sapiens): 1.6 µM
CC50 (M14; [1]): 6.2 µM
TGI (M14): 3.15 µM
GI50 (UACC-257): 1.61 µM
CC50 (UACC-257): 33.8 µM
TGI (UACC-257): 4.29 µM
GI50 (UACC-62): 1.28 µM
CC50 (UACC-62): 6.23 µM
TGI (UACC-62): 2.83 µM
GI50 (OVCAR-8): 2.14 µM
CC50 (OVCAR-8): > 100 µM
TGI (OVCAR-8): 5.54 µM
GI50 (SK-OV-3): 4.19 µM
CC50 (SK-OV-3): 76.1 µM
TGI (CAKI-1): 11.8 µM
GI50 (CAKI-1): 2.08 µM
CC50 (CAKI-1): 45.3 µM
GI50 (DU-145): 1.83 µM
CC50 (DU-145): 8.23 µM
TGI (DU-145): 3.88 µM
GI50 (MCF7): 1.4 µM
CC50 (MCF7): 6.71 µM
TGI (MCF7): 3.07 µM
cell morphology and confluence (A375 cells): noticeable decrease in cell confluence
Expression of BAK gene, Mean (BAK gene, A375): 0.516 ***
Expression of BAK gene, Mean (BAK gene, RPMI): 11.853 **
Expression of BAK gene, Mean (BAK gene, SK-Mel-28): 91.283 ***
Expression of BAX gene, Mean (BAX gene, A375): 0.590 ***
Expression of BAX gene, Mean (BAX gene, RPMI): 0.640 **
Expression of BAX gene, Mean (BAX gene, SK-Mel-28): 0.140 ***
Expression of Bcl-2 gene, Mean (Bcl-2 gene, A375): 1.166
Expression of Bcl-2 gene, Mean (Bcl-2 gene, RPMI): 0.236 ***
Expression of Bcl-2 gene, Mean (Bcl-2 gene, SK-Mel-28): 0.083 **
Expression of Bcl-XL gene, Mean (Bcl-XL gene, A375): 0.300
Expression of Bcl-XL gene, Mean (Bcl-XL gene, SK-Mel-28): 0.003 ***
Irritation Score (chorioallantoic membrane; 300 µL, 5 min, test compounds 1 µM, scale 0 to 21): 0
Type of Effect (chorioallantoic membrane; Luepke scale): Non-irritant

CCN1CCN(C(=O)[C@]23CC[C@@H](C)[C@H](C)[C@H]2C2=CC[C@@H]4[C@@]5(C)C/C(=C/c6cccnc6)C(=O)C(C)(C)[C@@H]5CC[C@@]4(C)[C@]2(C)CC3)CC1 [Compound 9, N-(2-{3-Pyridinylidene}-3-oxoursan-12-en-28-oyl)-ethylpiperazine]
GI50 (K-562): 2.08 µM
CC50 (K-562): > 100 µM
TGI (K-562): 5.00 µM
GI50 (NCI-H226; Homo sapiens): 1.89 µM
CC50 (NCI-H226; [1]): 8.78 µM
TGI (NCI-H226): 4.07 µM
GI50 (NCI-H322M): 2.28 µM
CC50 (NCI-H322M): 28.8 µM
TGI (NCI-H322M): 8.27 µM
GI50 (NCI-H460): 1.78 µM
CC50 (NCI-H460): 6.69 µM
TGI (NCI-H460): 3.45 µM
GI50 (SNB-75; Homo sapiens): 1.57 µM
CC50 (SNB-75; [1]): 39.9 µM
TGI (SNB-75): 8.91 µM
GI50 (LOX IMVI): 1.58 µM
CC50 (LOX IMVI): 5.91 µM
TGI (LOX IMVI): 3.06 µM
GI50 (UACC-257): 2.21 µM
CC50 (UACC-257): > 100 µM
TGI (UACC-257): 5.95 µM
GI50 (UACC-62): 1.51 µM
CC50 (UACC-62): 5.8 µM
TGI (UACC-62): 2.96 µM
GI50 (OVCAR-8): 2.32 µM
CC50 (OVCAR-8): > 100 µM
TGI (OVCAR-8): 6.29 µM
GI50 (SK-OV-3): 2.7 µM
CC50 (SK-OV-3): 90.1 µM
TGI (SK-OV-3): 9.02 µM
TGI (CAKI-1): 11.8 µM
GI50 (CAKI-1): 2.12 µM
CC50 (CAKI-1): 41.9 µM
GI50 (DU-145): 2.08 µM
CC50 (DU-145): 8.53 µM
TGI (DU-145): 4.21 µM
GI50 (MCF7): 1.64 µM
CC50 (MCF7): 7.14 µM
TGI (MCF7): 3.42 µM
